Assay results reported in PMC5626944 (Frontiers in Pharmacology, 2017).
Like-named read-outs stand apart in the source and are kept apart here.

Tests used:
[1] = test system: Glutamate, NMDA, Phencyclidine Site (Ionotropic); experiment: NovaScreen competition binding; conditions: 1 µM
[2] = test system: Glutamate, MK-801 Site (Ionotropic); experiment: NovaScreen competition binding; conditions: 1 µM
Muscarinic, M4 (h) = experiment: NovaScreen competition binding; parameters: species or system human; conditions: 1 µM
Serotonin, 5HT3 = test system: T1, Serotonin, 5HT3; experiment: NovaScreen competition binding; parameters: species or system mouse; conditions: 1 µM
T1 construct: endogenous in cells; host or cells: N1E-115 (mouse neuroblastoma)
Text: Assays included the nicotinic drug [^3H]epibatidine binding to α-bungarotoxin-insensitive nAChRs, the 5-HT3 inhibitor [N-methyl-^3H]GR65630 to mouse receptors in N1E-115 cells, and human receptors expressed in a clonal cell line. Other assays included monoamine oxidase A, monoamine oxidase B, 5-HT transporter, norepinephrine transporter, and dopamine transporter, as well as other. G-protein-coupled receptors, ion channels, enzymes, and transporters.

α6β2* nAChRs = α6β2* nAChRs (Mus musculus, UniProt Q9ERK7+Q9R0W9); experiment: [125I]epibatidine binding, striatal membranes from α4KO mice; parameters: from tissue; host or cells: striatal membranes from α4KO mice
Experimental: (§1) Brain membrane preparations were stored as pellets under buffer at -70°C or used immediately.

α4β2* nAChRs = α4β2* nAChRs (Mus musculus, UniProt O70174+Q9ERK7); experiment: [125I]epibatidine binding, cortical membranes; parameters: from tissue; host or cells: cortical brain membranes (mouse)
Experimental: as §1

[3] = test system: T2, Leukotriene, LTD4 (CysLT1); experiment: NovaScreen competition binding; conditions: 1 µM
T2 construct: PerkinElmer – Caliper Life Sciences (NovaScreen service)

Serotonin, 5HT7 (h) = experiment: NovaScreen competition binding; parameters: species or system human; conditions: 1 µM
[4] = test system: Glycine, Strychnine-sensitive; experiment: NovaScreen competition binding; conditions: 1 µM
CYP3A4 = experiment: Turnover by recombinantly expressed human cytochrome P450 isoforms; format: in vitro ADME; conditions: 100 pmol/mL enzyme, 37 °C
Experimental: (§2) S2 Table. In vitro metabolism of TC299423, compared w ith varenicline.
(§3) Human Rat microsomes Turnover by human cytochrome P450 isoforms […]
(§4) The assay mixtures (final incubation volume of 125 μL) in 0.255 M phosphate buffer with 0.575% (w/v) KCl (pH 7.4) contained PiB (1.0 μM), […] a recombinantly expressed cytochrome P450 enzyme preparation (1A2, 2C9, 2C19, 2D6, 3A4, and FMO3) at 100 pmol/mL. After a 10 min preincubation at 37 °C, the reaction was initiated by addition of 2.0 mM NADPH and incubated for 60 min. The reactions were terminated by the addition of two volumes of DMSO. Samples were subsequently centrifuged at 4,000 rpm for 10 min. From the resulting supernatant, 10 μ L was analyzed by liquid chromatography/tandem mass spectrometry (LC-MS/MS). Control experiments were performed by substituting the active enzyme preparation by cell preparations containing no recombinant human CYP. a, Data for clearance are given as μL /min/mg protein. […]
(§5) c, Data for cytochrome P450 turnover and for human flavin- containing monooxygenase 3 (FMO3) are given as percent decline over 60 min.

CYP2D6 = experiment: as above; format: in vitro ADME; conditions: 100 pmol/mL enzyme, 37 °C
Experimental: as §2, §3, §4, §5

CYP2C9 = experiment: as above; format: in vitro ADME; conditions: 100 pmol/mL enzyme, 37 °C
Experimental: as §2, §3, §4, §5

CYP1A2 = experiment: as above; format: in vitro ADME; conditions: 100 pmol/mL enzyme, 37 °C
Experimental: as §2, §3, §4, §5

CYP2C19 = experiment: as above; format: in vitro ADME; conditions: 100 pmol/mL enzyme, 37 °C
Experimental: as §2, §3, §4, §5

Muscarinic, M3 (h) = experiment: NovaScreen competition binding; parameters: species or system human; conditions: 1 µM
Neurokinin, NK1 = experiment: NovaScreen competition binding; conditions: 1 µM
Muscarinic, M2 (h) = experiment: NovaScreen competition binding; parameters: species or system human; conditions: 1 µM
[5] = Pharmacokinetics in mice, plasma and brain by LC-MS/MS; format: in vivo, mouse; conditions: for half-life / Tmax: both sexes, mouse, plasma; for Tmax: read-out: Time of maximum plasma concentration
Experimental: Pharmacokinetic experiments with TC299423 were performed by Absorption Systems LP (Exton, PA, United States). […] Blood samples were taken and the brains were harvested 5 min, 15 min, 30 min, 1 h, 3 h, and 6 h after drug administration. […] Blood and brain samples were obtained at the same time points as above. Untreated plasma and blood samples were collected from three mice in the same cohort as the study animals for pre-dose (time 0) samples. Blood samples were collected by cardiac puncture and stored in tubes containing sodium heparin before being processed. Plasma was prepared and frozen for analysis. Brains were harvested, rinsed, patted dry, weighed, and frozen.
Matched matrix was used for preparation of calibration standards. Dosing solutions were normalized in matched matrix and analyzed in triplicate in the same analytical batch as the incurred samples.

Histamine, H3 = experiment: NovaScreen competition binding; conditions: 1 µM
Serotonin, 5HT1A (h) = experiment: NovaScreen competition binding; parameters: species or system human; conditions: 1 µM
Leukotriene, LTB4 (BLT) = experiment: NovaScreen competition binding; conditions: 1 µM

α6β2* nAChRs, sequence (Q9ERK7 26-501): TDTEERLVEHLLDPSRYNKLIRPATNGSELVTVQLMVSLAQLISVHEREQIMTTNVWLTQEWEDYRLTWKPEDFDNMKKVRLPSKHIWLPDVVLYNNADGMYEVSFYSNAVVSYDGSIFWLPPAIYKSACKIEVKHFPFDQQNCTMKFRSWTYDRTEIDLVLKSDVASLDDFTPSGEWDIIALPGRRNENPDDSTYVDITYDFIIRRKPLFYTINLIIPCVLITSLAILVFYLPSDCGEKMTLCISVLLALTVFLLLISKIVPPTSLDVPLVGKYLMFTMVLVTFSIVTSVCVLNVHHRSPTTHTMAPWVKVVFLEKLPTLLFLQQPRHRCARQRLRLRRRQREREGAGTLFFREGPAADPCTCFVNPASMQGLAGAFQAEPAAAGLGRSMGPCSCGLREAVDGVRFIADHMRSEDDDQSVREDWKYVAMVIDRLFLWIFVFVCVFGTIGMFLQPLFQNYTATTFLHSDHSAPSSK
α6β2* nAChRs, sequence (Q9R0W9 31-494): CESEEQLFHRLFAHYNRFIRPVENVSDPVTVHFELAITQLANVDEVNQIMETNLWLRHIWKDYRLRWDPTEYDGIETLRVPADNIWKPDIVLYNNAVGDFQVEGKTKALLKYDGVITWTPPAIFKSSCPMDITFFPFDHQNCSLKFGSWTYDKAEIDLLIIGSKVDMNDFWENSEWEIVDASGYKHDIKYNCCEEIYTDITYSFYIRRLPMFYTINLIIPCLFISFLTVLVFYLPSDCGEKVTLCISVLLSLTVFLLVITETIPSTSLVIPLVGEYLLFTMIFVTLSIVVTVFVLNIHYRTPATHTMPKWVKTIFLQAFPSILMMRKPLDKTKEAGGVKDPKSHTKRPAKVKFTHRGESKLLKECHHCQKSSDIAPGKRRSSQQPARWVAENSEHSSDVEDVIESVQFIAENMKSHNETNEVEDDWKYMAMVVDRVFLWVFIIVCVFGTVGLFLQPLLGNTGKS
α4β2* nAChRs, sequence (O70174 31-629): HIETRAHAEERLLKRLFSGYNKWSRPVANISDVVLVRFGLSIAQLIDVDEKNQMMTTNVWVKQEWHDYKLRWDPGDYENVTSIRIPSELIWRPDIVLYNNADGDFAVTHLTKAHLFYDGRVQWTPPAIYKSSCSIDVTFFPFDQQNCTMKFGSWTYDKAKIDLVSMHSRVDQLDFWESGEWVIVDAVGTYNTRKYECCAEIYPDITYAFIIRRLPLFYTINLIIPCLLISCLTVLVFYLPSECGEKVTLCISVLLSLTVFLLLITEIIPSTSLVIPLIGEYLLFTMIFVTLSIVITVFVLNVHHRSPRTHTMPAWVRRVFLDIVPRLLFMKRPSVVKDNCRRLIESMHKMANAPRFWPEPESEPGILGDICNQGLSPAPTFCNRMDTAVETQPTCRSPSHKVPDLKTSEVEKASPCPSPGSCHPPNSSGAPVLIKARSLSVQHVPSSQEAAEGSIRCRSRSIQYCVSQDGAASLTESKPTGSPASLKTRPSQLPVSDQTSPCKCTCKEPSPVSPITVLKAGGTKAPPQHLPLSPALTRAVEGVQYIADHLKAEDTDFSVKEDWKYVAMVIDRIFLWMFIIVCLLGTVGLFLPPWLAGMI
α4β2* nAChRs, sequence (Q9ERK7 26-501): as the sequence (Q9ERK7 26-501) above

C1=C(/c2cncnc2)CCCNCC/1 [TC299423, (E)-5-(pyrimidin-5-yl)-1,2,3,4,7,8-hexahydroazocine]
Hit [1]: FALSE | Inhibition ([1]; [3H]TCP): 7.71% | Hit [2]: FALSE | Inhibition ([2]; [3H]MK-801): 5.46% | Hit (Muscarinic, M4 (h)): FALSE | Inhibition (Muscarinic, M4 (h); [3H]Scopolamine, N-Methyl): -6.69% | Hit (Serotonin, 5HT3): FALSE | Inhibition (Serotonin, 5HT3; [3H]GR 65630): 7.50% | Ki (α6β2* nAChRs; α4KO striatal membranes): 1.4 ± 0.6 nM | Difference between Ki ([125I]epibatidine) and EC50 ([3H]dopamine release) (α6β2* nAChRs; α6β2* nAChRs): ~20 fold | Ki (α4β2* nAChRs; single component, cortical membranes): 0.24 ± 0.04 nM | Difference between Ki ([125I]epibatidine) and EC50 ([3H]dopamine release) (α4β2* nAChRs; α4β2 nAChRs): ~500 fold | Hit [3]: FALSE | Inhibition ([3]; [3H]LTD4): -8.26% | Hit (Serotonin, 5HT7 (h)): FALSE | Inhibition (Serotonin, 5HT7 (h); [3H]LSD): -2.10% | Hit [4]: FALSE | Inhibition ([4]; [3H]Strychnine): -7.63% | Turnover by CYP3A4 (CYP3A4): 7 percent decline over 60 min | Turnover by CYP2D6 (CYP2D6): 42 percent decline over 60 min | Turnover by CYP2C9 (CYP2C9): 8 percent decline over 60 min | Turnover by CYP1A2 (CYP1A2): 3 percent decline over 60 min | Turnover by CYP2C19 (CYP2C19): 4 percent decline over 60 min | Hit (Muscarinic, M3 (h)): FALSE | Inhibition (Muscarinic, M3 (h); [3H]Scopolamine, N-Methyl): -4.77% | Hit (Neurokinin, NK1): FALSE | Inhibition (Neurokinin, NK1; [3H]Substance P): 2.10% | Hit (Muscarinic, M2 (h)): FALSE | Inhibition (Muscarinic, M2 (h); [3H]Scopolamine, N-Methyl): -3.18% | Maximum brain-tissue concentration ([5]; 0.3 mg/kg ip): 22 ± 0.43 ng/g | Maximum plasma concentration ([5]; 0.3 mg/kg ip): 49 ± 18 ng/mL | Time of maximum brain-tissue concentration ([5]; 0.3 mg/kg ip): 0.5 h | Maximum brain-tissue concentration ([5]; 0.3 mg/kg ip, converted): 0.12 µM | Maximum plasma concentration ([5]; 0.3 mg/kg ip, converted): 0.26 µM | Maximum brain-tissue concentration ([5]; 1 mg/kg oral): 42 ± 17 ng/g | Maximum plasma concentration ([5]; 1 mg/kg oral): 38 ± 10 ng/mL | Time of maximum brain-tissue concentration ([5]; 1 mg/kg oral): 0.25 h | Maximum brain-tissue concentration ([5]; 1 mg/kg oral, converted): 0.22 µM | Maximum plasma concentration ([5]; 1 mg/kg oral, converted): 0.20 µM | half-life ([5]; 0.3 mg/kg ip): 10.2 min | Tmax ([5]; 0.3 mg/kg ip): 4.8 min | half-life ([5]; 1 mg/kg oral): 67.2 min | Tmax ([5]; 1 mg/kg oral): 15 min | Time remaining in the brain ([5]; following ip injection or oral administration): at least 60 min | Hit (Histamine, H3): FALSE | Inhibition (Histamine, H3; [3H]N-a-MeHistamine): 5.85% | Hit (Serotonin, 5HT1A (h)): FALSE | Inhibition (Serotonin, 5HT1A (h); [3H]-8-OH-DPAT): 17.60% | Hit (Leukotriene, LTB4 (BLT)): FALSE | Inhibition (Leukotriene, LTB4 (BLT); [3H]LTB4): 29.86%
